Values of other authors, collected in patent US20040009537A1, “Methods of modulating and of identifying agents that modulate intracellular calcium” (priority 2002, published 2004).

Test system: HeLa cells
Conditions: HeLa cells treated with histamine; decrease from about 60-400 μM

## NCCc1c[nH]cn1 [histamine]
  ER free calcium: 1 to 50 µM
